From patent US10047051B2, “Substituted pyridines and method of use” (AbbVie S.á{acute over (.)}r.l., priority 2015, dated 2018) come the findings set out here.

The target in one experiment is T1, CFTR ΔF508 mutant (Homo sapiens, UniProt P13569, DEL508-508).
T1 construct: expressed in transfected cells; host or cells: CFBE41o- cells, adenoviral transduction
The experiment is described as follows: YFP-halide influx assay for the CFTR-ΔF508 mutation (CFBE41o- cells). Format: cell-based. The note with it: forskolin 10.67 μM; for EC50: from (1−F/F0) vs concentration plot. In a few lines: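 EC50 derived from plotting 1−F/F0 (fluorescence 36 s after iodide injection over pre-injection value) against compound concentration. Cells: CFBE41o- transduced with ΔF508-CFTR and YFP quench reporter, corrected 24 h at 27° C or by a CFTR modulator at 37° C.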

Another experiment concerns the target T2, CFTR G551D mutant (Homo sapiens, UniProt P13569, G551D).
T2 construct: expressed in transfected cells; host or cells: HEK293 cells, reverse transfection with plasmids
In words: YFP-halide influx assay for the CFTR-G551D mutation (HEK293 cells). Format: cell-based. The conditions noted are these: forskolin 10.67 μM. In a few lines:
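Channel opening read as I⁻-driven quenching of a YFP H148Q/I152L/F47L reporter over 7 s post-injection, expressed as 1−F/F0 and fitted against concentration for EC50. Cells were HEK293 co-transfected at seeding with G551D CFTR plus reporter, then grown 24 h at 37 °C, 5% CO2.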

Molecules are shown by their SMILES. A value given as a limit tells only on which side of the number the result lay.

T1 sequence (P13569 with tags, fused parts or gaps DEL508-508): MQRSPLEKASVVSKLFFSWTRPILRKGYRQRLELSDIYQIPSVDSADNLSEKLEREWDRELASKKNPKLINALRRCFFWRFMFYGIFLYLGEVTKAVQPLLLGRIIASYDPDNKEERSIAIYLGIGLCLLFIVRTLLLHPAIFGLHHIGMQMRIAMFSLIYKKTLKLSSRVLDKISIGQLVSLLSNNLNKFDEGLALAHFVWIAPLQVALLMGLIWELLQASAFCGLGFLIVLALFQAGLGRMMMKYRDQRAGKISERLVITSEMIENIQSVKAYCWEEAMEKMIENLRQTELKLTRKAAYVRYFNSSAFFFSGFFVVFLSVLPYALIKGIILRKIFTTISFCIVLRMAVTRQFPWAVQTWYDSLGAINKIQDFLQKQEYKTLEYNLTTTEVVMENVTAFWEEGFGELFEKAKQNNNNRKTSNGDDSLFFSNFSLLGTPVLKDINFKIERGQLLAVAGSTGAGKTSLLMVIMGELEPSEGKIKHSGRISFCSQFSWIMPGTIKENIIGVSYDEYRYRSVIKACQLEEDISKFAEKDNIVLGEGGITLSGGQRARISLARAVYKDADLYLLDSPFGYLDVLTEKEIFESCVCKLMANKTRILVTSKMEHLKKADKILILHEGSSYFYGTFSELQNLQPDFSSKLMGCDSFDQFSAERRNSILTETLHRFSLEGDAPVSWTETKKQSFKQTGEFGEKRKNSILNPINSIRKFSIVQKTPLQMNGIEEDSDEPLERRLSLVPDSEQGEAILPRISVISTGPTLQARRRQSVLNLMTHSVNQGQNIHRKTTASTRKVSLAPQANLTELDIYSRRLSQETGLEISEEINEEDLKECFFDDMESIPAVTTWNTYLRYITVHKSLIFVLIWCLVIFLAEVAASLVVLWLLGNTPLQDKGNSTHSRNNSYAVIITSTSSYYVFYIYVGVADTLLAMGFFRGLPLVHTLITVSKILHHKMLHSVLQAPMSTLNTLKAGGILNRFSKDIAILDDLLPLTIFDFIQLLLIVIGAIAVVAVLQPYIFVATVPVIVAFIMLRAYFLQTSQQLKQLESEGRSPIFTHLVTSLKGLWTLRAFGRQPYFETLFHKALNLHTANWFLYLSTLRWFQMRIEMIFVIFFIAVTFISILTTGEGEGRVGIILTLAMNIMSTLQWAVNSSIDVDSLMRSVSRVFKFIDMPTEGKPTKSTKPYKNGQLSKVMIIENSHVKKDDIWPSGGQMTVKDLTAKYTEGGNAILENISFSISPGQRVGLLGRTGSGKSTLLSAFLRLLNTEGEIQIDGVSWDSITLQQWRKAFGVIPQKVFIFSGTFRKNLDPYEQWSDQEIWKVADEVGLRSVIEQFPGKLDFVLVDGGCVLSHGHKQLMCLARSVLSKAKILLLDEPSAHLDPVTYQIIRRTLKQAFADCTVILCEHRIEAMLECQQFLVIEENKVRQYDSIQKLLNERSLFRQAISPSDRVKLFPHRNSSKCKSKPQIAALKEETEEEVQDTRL
T2 sequence (P13569 whole entry G551D): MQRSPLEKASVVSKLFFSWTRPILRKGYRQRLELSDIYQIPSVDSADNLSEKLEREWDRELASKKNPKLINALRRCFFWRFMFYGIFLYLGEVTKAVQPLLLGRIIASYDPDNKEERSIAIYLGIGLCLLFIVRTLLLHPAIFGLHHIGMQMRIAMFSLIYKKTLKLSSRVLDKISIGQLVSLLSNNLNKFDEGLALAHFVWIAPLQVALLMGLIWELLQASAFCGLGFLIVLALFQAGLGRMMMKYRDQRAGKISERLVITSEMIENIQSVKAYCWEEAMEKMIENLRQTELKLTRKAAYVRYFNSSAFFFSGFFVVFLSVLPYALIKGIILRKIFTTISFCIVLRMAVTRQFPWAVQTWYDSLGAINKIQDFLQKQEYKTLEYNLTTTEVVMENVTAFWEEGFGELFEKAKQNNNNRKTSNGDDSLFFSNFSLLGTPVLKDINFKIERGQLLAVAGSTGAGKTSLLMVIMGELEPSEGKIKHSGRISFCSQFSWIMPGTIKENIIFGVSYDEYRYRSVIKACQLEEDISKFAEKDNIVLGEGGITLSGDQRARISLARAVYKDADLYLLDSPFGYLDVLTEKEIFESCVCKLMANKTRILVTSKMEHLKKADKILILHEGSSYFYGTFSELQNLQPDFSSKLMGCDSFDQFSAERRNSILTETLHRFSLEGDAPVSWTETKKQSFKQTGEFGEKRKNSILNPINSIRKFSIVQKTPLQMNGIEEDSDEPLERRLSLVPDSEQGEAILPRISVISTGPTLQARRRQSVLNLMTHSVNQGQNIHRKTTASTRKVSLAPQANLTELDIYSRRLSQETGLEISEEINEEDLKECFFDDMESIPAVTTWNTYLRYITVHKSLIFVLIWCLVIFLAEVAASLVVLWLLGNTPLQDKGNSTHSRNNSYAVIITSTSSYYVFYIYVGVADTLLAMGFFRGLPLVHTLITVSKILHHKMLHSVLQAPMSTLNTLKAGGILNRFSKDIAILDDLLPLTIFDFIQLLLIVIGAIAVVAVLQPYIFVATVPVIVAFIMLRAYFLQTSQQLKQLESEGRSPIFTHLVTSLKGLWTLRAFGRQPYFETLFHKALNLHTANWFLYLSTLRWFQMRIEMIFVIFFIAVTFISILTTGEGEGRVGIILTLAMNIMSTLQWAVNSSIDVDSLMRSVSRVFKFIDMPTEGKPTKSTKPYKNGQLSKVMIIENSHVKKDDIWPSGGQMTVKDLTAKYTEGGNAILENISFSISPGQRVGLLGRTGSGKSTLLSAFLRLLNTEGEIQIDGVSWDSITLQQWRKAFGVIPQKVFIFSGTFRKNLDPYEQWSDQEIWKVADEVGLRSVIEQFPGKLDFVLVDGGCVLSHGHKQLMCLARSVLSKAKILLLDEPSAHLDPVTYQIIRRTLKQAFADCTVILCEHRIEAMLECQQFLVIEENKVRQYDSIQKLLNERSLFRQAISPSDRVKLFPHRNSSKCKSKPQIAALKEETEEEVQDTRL

For the molecule `CC(C)NC(=O)CNC(=O)c1ncc(S(=O)(=O)c2ccc(C(F)(F)F)cc2)cc1N` [Compound 104, 3-amino-N-[2-oxo-2-(propan-2-ylamino)ethyl]-5-{[4-(trifluoromethyl)phenyl]sulfonyl}pyridine-2-carboxamide], on CFTR ΔF508 mutant, the “% Activation” value worked out at 100.8% and the EC50 (as a rule, the concentration needed to bring the measured effect to its halfway point) came out at 18.9 nM. In addition, at CFTR G551D mutant, the “% Activation” value stood at 26.1% and the EC50 was over 10000 nM.
The matching figures for `Nc1cc(S(=O)(=O)c2ccc(OC(F)(F)F)cc2)cnc1C(=O)N[C@@H]1CCOC1` [Compound 128, 3-amino-N-[(3R)-tetrahydrofuran-3-yl]-5-{[4-(trifluoromethoxy)phenyl]sulfonyl}pyridine-2-carboxamide]: 95.0%, 85.2 nM, 41.7% and over 10000 nM.
For `CC1CN(C(=O)c2ncc(S(=O)(=O)c3ccc(OC(F)(F)F)cc3)cc2N)C1` [Compound 126, (3-amino-5-{[4-(trifluoromethoxy)phenyl]sulfonyl}pyridin-2-yl)(3-methylazetidin-1-yl)methanone], at CFTR ΔF508 mutant, the “% Activation” value is recorded as 92.9% and the EC50 came to 64.9 nM. Moreover, on CFTR G551D mutant, the “% Activation” value was found to be 62.2% and a half-maximal effect (EC50) was put at 1470 nM.
Turning to `C[C@H](O)CNC(=O)c1nc(N(C)C)c(S(=O)(=O)c2ccc(OC(F)(F)F)cc2)cc1N` [Compound 283, 3-amino-6-(dimethylamino)-N-[(2S)-2-hydroxypropyl]-5-{[4-(trifluoromethoxy)phenyl]sulfonyl}pyridine-2-carboxamide], on CFTR ΔF508 mutant, the “% Activation” value worked out at 93.3% and the EC50 is 5.1 nM. For the same molecule, on CFTR G551D mutant, the “% Activation” value was found to be 96.5% and the response was half-maximal at 2620 nM (EC50).
The matching figures for `Nc1cc(S(=O)(=O)c2ccc(OC(F)(F)F)cc2)cnc1C(=O)NCC(=O)NC1CC1` [Compound 58, 3-amino-N-[2-(cyclopropylamino)-2-oxoethyl]-5-{[4-(trifluoromethoxy)phenyl]sulfonyl}pyridine-2-carboxamide]: 92.2%, 20.6 nM, 42.3% and 1070 nM.
With `Nc1cc(S(=O)(=O)c2ccc(OC(F)(F)F)cc2)cnc1C(=O)NC1COC2(CCCC2)C1` (stereo not shown) [Compound 150, 3-amino-N-(1-oxaspiro[4.4]non-3-yl)-5-{[4-(trifluoromethoxy)phenyl]sulfonyl}pyridine-2-carboxamide], the “% Activation” value on CFTR ΔF508 mutant worked out at 116.0%; on CFTR G551D mutant it was 49.7%. For the same molecule, the EC50 at CFTR ΔF508 mutant turned out to be 355 nM; at CFTR G551D mutant it was 1070 nM.
The matching figures for `CC(C)S(=O)(=O)c1cc(N)c(C(=O)NC[C@H](C)O)nc1-c1ccc(F)cc1` [Compound 264, 3-amino-6-(4-fluorophenyl)-N-[(2S)-2-hydroxypropyl]-5-(propan-2-ylsulfonyl)pyridine-2-carboxamide]: 76.0%, 6.51%, 213 nM and 2000 nM.
In the case of `COc1nc(C(=O)NC[C@H](C)O)c(N)cc1S(=O)(=O)c1ccc(OC(F)(F)F)cc1` [Compound 280, 3-amino-N-[(2S)-2-hydroxypropyl]-6-methoxy-5-{[4-(trifluoromethoxy)phenyl]sulfonyl}pyridine-2-carboxamide], on CFTR ΔF508 mutant, the “% Activation” value was 111.0% and a half-maximal response (EC50) required 2.9 nM. In addition, on CFTR G551D mutant, the “% Activation” value came to 57.6% and the EC50 came to 1160 nM.
Taken in the same sequence, the figures for `C[C@H](O)CNC(=O)c1ncc(S(=O)(=O)c2ccc(C(F)(F)F)cc2F)cc1N` [Compound 98, 3-amino-5-{[2-fluoro-4-(trifluoromethyl)phenyl]sulfonyl}-N-[(2S)-2-hydroxypropyl]pyridine-2-carboxamide] were 95.6%, 7.4 nM, 60.2% and 685 nM.
Regarding `Nc1cc(S(=O)(=O)c2ccc(C(F)(F)F)cc2)cnc1C(=O)N1CC2(CCCOC2)C1` [Compound 295, (3-amino-5-{[4-(trifluoromethyl)phenyl]sulfonyl}pyridin-2-yl)(6-oxa-2-azaspiro[3.5]non-2-yl)methanone], the “% Activation” value on CFTR ΔF508 mutant turned out to be 102.3%; at CFTR G551D mutant, 92.7%. Besides, the EC50 stood at 51.3 nM at CFTR ΔF508 mutant and 1970 nM on CFTR G551D mutant.
Turning to `Nc1cc(S(=O)(=O)c2ccc(C(F)(F)F)cc2)cnc1C(=O)NCC1(O)CC1` [Compound 228, 3-amino-N-[(1-hydroxycyclopropyl)methyl]-5-{[4-(trifluoromethyl)phenyl]sulfonyl}pyridine-2-carboxamide], on CFTR ΔF508 mutant, the “% Activation” value amounted to 123.3% and it took 8.5 nM to reach a half-maximal effect (EC50). In addition, at CFTR G551D mutant, the “% Activation” value was 62.6% and the concentration giving a half-maximal response (EC50) worked out at 1040 nM.
The matching figures for `Nc1cc(S(=O)(=O)c2ccc(C(F)(F)F)cc2)cnc1C(=O)N1CC(O)(C(F)(F)F)C1` [Compound 105, (3-amino-5-{[4-(trifluoromethyl)phenyl]sulfonyl}pyridin-2-yl)[3-hydroxy-3-(trifluoromethyl)azetidin-1-yl]methanone]: 103.5%, 2 nM, 50.4% and 128 nM.
Taken in the same sequence, the figures for `Nc1cc(S(=O)(=O)c2ccc(C(F)(F)F)cc2)cnc1C(=O)N1CCC[C@H]1CO` [Compound 226, (3-amino-5-{[4-(trifluoromethyl)phenyl]sulfonyl}pyridin-2-yl)[(2S)-2-(hydroxymethyl)pyrrolidin-1-yl]methanone] were 11.9%, over 2000 nM, 1.4% and over 10000 nM.
The matching figures for `COC1CCN(S(=O)(=O)c2cnc(C(=O)NCC(O)C(F)(F)F)c(N)c2)CC1` (stereo not shown) [Compound 196, 3-amino-5-[(4-methoxypiperidin-1-yl)sulfonyl]-N-(3,3,3-trifluoro-2-hydroxypropyl)pyridine-2-carboxamide]: 105.4%, 25.7 nM, 65.4% and 1820 nM.
Consider `CC(C)(C)CNC(=O)c1ncc(S(=O)(=O)c2ccc(C(F)(F)F)cc2)cc1N` [Compound 191, 3-amino-N-(2,2-dimethylpropyl)-5-{[4-(trifluoromethyl)phenyl]sulfonyl}pyridine-2-carboxamide], for which the “% Activation” value at CFTR ΔF508 mutant is recorded as 99.7%; at CFTR G551D mutant, 11.7%. In addition, the EC50 at CFTR ΔF508 mutant was 157 nM; on CFTR G551D mutant it was over 10000 nM.
Taken in the same sequence, the figures for `Nc1cc(S(=O)(=O)c2ccc(C(F)(F)F)cc2)cnc1C(=O)N1CC(OC(F)F)C1` [Compound 158, (3-amino-5-{[4-(trifluoromethyl)phenyl]sulfonyl}pyridin-2-yl)[3-(difluoromethoxy)azetidin-1-yl]methanone] were 114.3%, 29.2%, 31.6 nM and over 10000 nM.
For the molecule `CN(Cc1ccc(F)c(F)c1)S(=O)(=O)c1cnc(C(=O)NCC(O)C(F)(F)F)c(N)c1` (stereo not shown) [Compound 136, 3-amino-5-[(3,4-difluorobenzyl)(methyl)sulfamoyl]-N-(3,3,3-trifluoro-2-hydroxypropyl)pyridine-2-carboxamide], on CFTR ΔF508 mutant, the “% Activation” value is given as 113.7% and the EC50 stood at 2.9 nM. Further, at CFTR G551D mutant, the “% Activation” value is on record as 53.4% and the EC50 is over 3330 nM.
The matching figures for `COCCS(=O)(=O)c1cc(N)c(C(=O)NC[C@H](C)O)nc1-c1ccc(F)cc1` [Compound 265, 3-amino-6-(4-fluorophenyl)-N-[(2S)-2-hydroxypropyl]-5-[(2-methoxyethyl)sulfonyl]pyridine-2-carboxamide]: 92.4%, 141 nM, 11.24% and 2000 nM.
For `Nc1cc(S(=O)(=O)c2ccc(OC(F)(F)F)cc2)cnc1C(=O)NCC1CC(F)(F)C1` [Compound 153, 3-amino-N-[(3,3-difluorocyclobutyl)methyl]-5-{[4-(trifluoromethoxy)phenyl]sulfonyl}pyridine-2-carboxamide], the “% Activation” value was 105.0% on CFTR ΔF508 mutant and 47.6% at CFTR G551D mutant. Further, the EC50 came out at 75.4 nM at CFTR ΔF508 mutant and 760 nM at CFTR G551D mutant.
Consider `COCCOc1nc(C(=O)NC[C@H](C)O)c(N)cc1S(=O)(=O)c1ccc(OC(F)(F)F)cc1` [Compound 288, 3-amino-N-[(2S)-2-hydroxypropyl]-6-(2-methoxyethoxy)-5-{[4-(trifluoromethoxy)phenyl]sulfonyl}pyridine-2-carboxamide], for which, at CFTR ΔF508 mutant, the “% Activation” value came out at 109.0% and the response was half-maximal at 8.7 nM (EC50). Further, on CFTR G551D mutant, the “% Activation” value was 78.3% and the EC50 is over 3330 nM.
For the molecule `Nc1cc(S(=O)(=O)c2ccc(OC(F)(F)F)cc2)cnc1C(=O)N[C@H]1CCOC1` [Compound 144, 3-amino-N-[(3S)-tetrahydrofuran-3-yl]-5-{[4-(trifluoromethoxy)phenyl]sulfonyl}pyridine-2-carboxamide], on CFTR ΔF508 mutant, the “% Activation” value is 92.6% and the response was half-maximal at 76.1 nM (EC50). In addition, on CFTR G551D mutant, the “% Activation” value was determined as 50.6% and the EC50 came to 1120 nM.
The matching figures for `Nc1cc(S(=O)(=O)c2ccc(OC(F)(F)F)cc2)cnc1C(=O)NCC(O)C1CCOCC1` (stereo not shown) [Compound 35, 3-amino-N-[2-hydroxy-2-(tetrahydro-2H-pyran-4-yl)ethyl]-5-{[4-(trifluoromethoxy)phenyl]sulfonyl}pyridine-2-carboxamide]: 110.4%, 84.7 nM, 78.7% and 2390 nM.
